From patent US5240933A, “14-hydroxy-N-(2-methoxyethyl)-7,8-dihydromorphine and -norisomorphine, processes for the preparation thereof and the use thereof as pharmaceutical compositions” (Boehringer Ingelheim GmbH, priority 1991, dated 1993)

Assays:
[1] = phenylquinone writhing test (analgesic effect); assay type: in vivo
Procedure: (§1) In this test, compound 1a according to the invention has a mean effective dose (MED) of 2.5 mg/kg p.o. (64% effect) and compound 1b according to the invention has an MED of 10 mg/kg p.o. (71% effect). […] This small sodium shift indicates the […] nature of the compounds according to the invention.

opiate receptor [2] = biological target: opiate receptor (Homo sapiens, UniProt P35372); assay: opiate receptor binding test with [^3 H]-dihydromorphine as radioligand
Procedure: as §1

opiate receptor [3] = assay: opiate receptor binding test with [^3 H]-naloxon as radioligand
Procedure: as §1

[4] = with the addition of 0.1M sodium chloride

opiate receptor (Homo sapiens, UniProt P35372), sequence (P35372 whole entry): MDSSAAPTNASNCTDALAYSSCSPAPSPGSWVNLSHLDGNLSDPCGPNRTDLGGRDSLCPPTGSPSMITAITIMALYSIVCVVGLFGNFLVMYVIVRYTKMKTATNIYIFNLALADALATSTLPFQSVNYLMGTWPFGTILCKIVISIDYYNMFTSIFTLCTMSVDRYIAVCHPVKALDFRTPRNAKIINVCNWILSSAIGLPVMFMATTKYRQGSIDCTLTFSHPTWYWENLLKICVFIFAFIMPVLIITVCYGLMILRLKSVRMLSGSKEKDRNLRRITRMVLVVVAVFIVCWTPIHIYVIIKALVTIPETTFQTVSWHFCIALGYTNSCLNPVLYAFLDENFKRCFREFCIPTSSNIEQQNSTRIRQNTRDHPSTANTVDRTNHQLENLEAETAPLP

Row | Compound | effect ([1]; at MED of 10 mg/kg p.o.) | Ki (opiate receptor [2]) | Ki (opiate receptor [3]; [4]) | Ki (opiate receptor [3]; without sodium chloride) | effect ([1]; at MED of 2.5 mg/kg p.o.) | effect ([1]; dose of 25 mg/kg p.o., comparison compound)
1 | COCCN1CC[C@]23c4c5ccc(O)c4O[C@H]2[C@H](O)CC[C@@]3(O)[C@H]1C5 [compound 1b, 14-hydroxy-N-(2-methoxyethyl)-7,8-dihydronorisomorphine] | 71% | 1.79 nM | 1.19 nM | 1.07 nM |  | 
2 | COCCN1CC[C@]23c4c5ccc(O)c4O[C@H]2[C@@H](O)CC[C@@]3(O)[C@H]1C5 [compound 1a, 14-hydroxy-N-(2-methoxyethyl)-7,8-dihydronormorphine] |  | 0.91 nM | 2.39 nM | 2.14 nM | 64% | 
3 | CC(C)Cc1ccc(C(C)C(=O)O)cc1 (stereo not drawn) [Ibuprofen, reference compound] |  |  |  |  |  | 65%
